Like-named read-outs stand apart in the source and are kept apart here.
How the values were obtained:
foxtail, giant = assay: Test A preemergence; format: in vivo, Setaria faberi; details: Setaria faberi, pre-emergence, 240 h, read-out: Plant response rating, Foxtail, Giant; for pest or weed control at 125 g/ha: 125 g ai/ha; for pest or weed control at 500 g/ha: 500 g ai/ha
Summary of the method: (§1)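 Seeds in loam–sand blend received a directed preemergence soil spray of compound in non-phytotoxic solvent with surfactant; postemergence plants (2–10 cm, one- to two-leaf stage) were sprayed with the same formulation. After 10 days in greenhouse, injury was rated visually versus untreated controls, 0 (no effect) to 100 (complete control).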

goosegrass = assay: Test A preemergence; format: in vivo, Eleusine indica; details: Eleusine indica, pre-emergence, 240 h, read-out: Plant response rating, Goosegrass; for pest or weed control at 125 g/ha: 125 g ai/ha; for pest or weed control at 500 g/ha: 500 g ai/ha
Summary of the method: as §1

oat, wild [1] = assay: Test A preemergence; format: in vivo, Avena fatua; details: Avena fatua, pre-emergence, 240 h, read-out: Plant response rating, Oat, Wild; for pest or weed control at 125 g/ha: 125 g ai/ha; for pest or weed control at 500 g/ha: 500 g ai/ha
Summary of the method: as §1

pigweed, palmer [2] = assay: Test A preemergence; format: in vivo, Amaranthus palmeri; details: Amaranthus palmeri, pre-emergence, 240 h, read-out: Plant response rating, Pigweed, Palmer; for pest or weed control at 125 g/ha: 125 g ai/ha; for pest or weed control at 500 g/ha: 500 g ai/ha
Summary of the method: as §1

ryegrass, Italian [3] = assay: Test A preemergence; format: in vivo, Lolium multiflorum; details: Lolium multiflorum, pre-emergence, 240 h, read-out: Plant response rating, Ryegrass, Italian; for pest or weed control at 125 g/ha: 125 g ai/ha; for pest or weed control at 500 g/ha: 500 g ai/ha
Summary of the method: as §1

corn = assay: Test A postemergence; format: in vivo, Zea mays; details: Zea mays, post-emergence, 240 h, postemergence, 10 days, 0 to 100 scale (0 no effect, 100 complete control); for plant injury at 125 g/ha: 125 g ai/ha, read-out: Corn plant response rating; for Corn plant response rating (crop injury, 0 = no effect, 100 = complete kill) at 500 g/ha: 500 g ai/ha, visual injury
Summary of the method: as §1

oat, wild [4] = assay: Test A postemergence; format: in vivo, Avena fatua; details: Avena fatua, post-emergence, 240 h, postemergence, 10 days, 0 to 100 scale (0 no effect, 100 complete control); for pest or weed control at 125 g/ha: 125 g ai/ha, read-out: Oat, Wild plant response rating; for pest or weed control at 500 g/ha: 500 g ai/ha, visual injury, read-out: Plant response rating, Oat, Wild
Summary of the method: as §1

pigweed, palmer [5] = assay: Test A postemergence; format: in vivo, Amaranthus palmeri; details: Amaranthus palmeri, post-emergence, 240 h, postemergence, 10 days, 0 to 100 scale (0 no effect, 100 complete control); for pest or weed control at 125 g/ha: 125 g ai/ha, read-out: Pigweed, Palmer plant response rating; for pest or weed control at 500 g/ha: 500 g ai/ha, visual injury, read-out: Plant response rating, Pigweed, Palmer
Summary of the method: as §1

ryegrass, Italian [6] = assay: Test A postemergence; format: in vivo, Lolium multiflorum; details: Lolium multiflorum, post-emergence, 240 h, postemergence, 10 days, 0 to 100 scale (0 no effect, 100 complete control); for pest or weed control at 125 g/ha: 125 g ai/ha, read-out: Ryegrass, Italian plant response rating; for pest or weed control at 500 g/ha: 500 g ai/ha, visual injury, read-out: Plant response rating, Ryegrass, Italian
Summary of the method: as §1

soybean = assay: Test A postemergence; format: in vivo, Glycine max; details: Glycine max, post-emergence, 240 h, postemergence, 10 days, 0 to 100 scale (0 no effect, 100 complete control); for plant injury at 125 g/ha: 125 g ai/ha, read-out: Soybean plant response rating; for plant injury at 500 g/ha: 500 g ai/ha, visual injury, read-out: Plant response rating, Soybean
Summary of the method: as §1

galium = assay: Test A postemergence; format: in vivo, Galium aparine; details: Galium, post-emergence, 240 h, postemergence, 10 days, 0 to 100 scale (0 no effect, 100 complete control); for pest or weed control at 125 g/ha: 125 g ai/ha, read-out: Galium plant response rating; for pest or weed control at 500 g/ha: 500 g ai/ha, visual injury, read-out: Plant response rating, Galium
Summary of the method: as §1

horseweed = assay: Test A postemergence; format: in vivo, Erigeron canadensis; details: Erigeron canadensis, post-emergence, 240 h, postemergence, 10 days, 0 to 100 scale (0 no effect, 100 complete control); for pest or weed control at 125 g/ha: 125 g ai/ha, read-out: Horseweed plant response rating; for pest or weed control at 500 g/ha: 500 g ai/ha, visual injury, read-out: Plant response rating, Horseweed
Summary of the method: as §1

barnyardgrass = assay: Test B flooded paddy test; format: in vivo, Echinochloa crus-galli; details: Echinochloa crus-galli, 312 h, 250 g ai/ha, Flood, 13 days, 0 to 100 scale (0 no effect, 100 complete control); read-out: Plant response rating, Barnyardgrass
Summary of the method: (§2)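 Percent weed or crop control, judged by eye on a 0–100 scale 13 days post-treatment, reflects compound added to a 3 cm flood maintained over 2-leaf plants in the greenhouse. Missing entries are marked with a dash.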

sedge, umbrella = assay: Test B flooded paddy test; format: in vivo, Cyperus difformis; details: Cyperus difformis, 312 h; 250 g ai/ha, Flood, 13 days, 0 to 100 scale (0 no effect, 100 complete control); read-out: Plant response rating, Sedge, Umbrella
Summary of the method: as §2

[7] = visual injury after 10 days, 0 to 100 scale, 0 is no effect, 100 is complete control
[8] = 0 to 100 scale (0 no effect, 100 complete control), 10 days

| Structure (SMILES) | pest or weed control at 125 g/ha (foxtail, giant; [7]) [%] | pest or weed control at 125 g/ha (goosegrass; [7]) [%] | pest or weed control at 125 g/ha (oat, wild [1]; [7]) [%] | pest or weed control at 125 g/ha (pigweed, palmer [2]; [7]) [%] | pest or weed control at 125 g/ha (ryegrass, Italian [3]; [7]) [%] | plant injury at 125 g/ha (corn) [%] | Corn plant response rating (crop injury, 0 = no effect, 100 = complete kill) at 500 g/ha (corn) [%] | pest or weed control at 125 g/ha (oat, wild [4]) [%] | pest or weed control at 500 g/ha (oat, wild [4]) [%] | pest or weed control at 125 g/ha (pigweed, palmer [5]) [%] | pest or weed control at 500 g/ha (pigweed, palmer [5]) [%] | pest or weed control at 125 g/ha (ryegrass, Italian [6]) [%] | pest or weed control at 500 g/ha (ryegrass, Italian [6]) [%] | plant injury at 125 g/ha (soybean) [%] | plant injury at 500 g/ha (soybean) [%] | pest or weed control at 125 g/ha (galium) [%] | pest or weed control at 500 g/ha (galium) [%] | pest or weed control at 125 g/ha (horseweed) [%] | pest or weed control at 500 g/ha (horseweed) [%] | pest or weed control at 250 g/ha (barnyardgrass) [%] | other results |
| --- | --- | --- | --- | --- | --- | --- | --- | --- | --- | --- | --- | --- | --- | --- | --- | --- | --- | --- | --- | --- | --- |
| COCc1ncn(-c2cccc(C(=O)N3C[C@H](C)Oc4c(C)cccc43)c2)n1 [Compound 101, [(2S)-2,3-Dihydro-2,8-dimethyl-4H-1,4-benzoxazin-4-yl][3-[3-(methoxymethyl)-1H-1,2,4-triazol-1-yl]phenyl]methanone] | 90 | 90 | 40 | 90 | 80 | 70 | 80 | 40 | 90 | 50 | 60 | 60 | 60 | 70 | 100 | 50 | 90 | 0 | 30 | 15 | pest or weed control at 500 g/ha (foxtail, giant; [8]): 100%; pest or weed control at 500 g/ha (goosegrass; [8]): 100%; pest or weed control at 500 g/ha (oat, wild [1]; [8]): 90%; pest or weed control at 500 g/ha (pigweed, palmer [2]; [8]): 100%; pest or weed control at 500 g/ha (ryegrass, Italian [3]; [8]): 90%; pest or weed control at 250 g/ha (sedge, umbrella): 85% |
| C[C@H]1CN(C(=O)c2cccc(-c3cnn(C)n3)c2)c2cccc(Cl)c2O1 [Compound 127, [(2S)-8-Chloro-2,3-dihydro-2-methyl-4H-1,4-benzoxazin-4-yl][3-(2-methyl-2H-1,2,3-triazol-4-yl)phenyl]methanone] | 90 | 60 | 0 | 40 | 20 | 20 | 50 | 0 | 10 | 60 | 90 | 10 | 50 | 100 | 100 | 60 | 100 | 0 | 0 | 0 | pest or weed control at 500 g/ha (foxtail, giant; [7]): 100%; pest or weed control at 500 g/ha (goosegrass; [7]): 100%; pest or weed control at 500 g/ha (oat, wild [1]; [7]): 20%; pest or weed control at 500 g/ha (pigweed, palmer [2]; [7]): 90%; pest or weed control at 500 g/ha (ryegrass, Italian [3]; [7]): 90%; pest or weed control at 250 g/ha (sedge, umbrella): 0% |
